According to patent publication US20160235749A1, “MICRO-PARTICULATED NANOCAPSULES CONTAINING LOPINAVIR WITH ENHANCED ORAL BIOAVAILABILITY AND EFFICACY” (priority 2015, published 2016):
≈ marks a conversion by molar mass, not a printed value. Where two headings read alike, the source gives them in different places.

Assays:
[1] = LPV solubility test in 0.1% Tween 80; assay type: physicochemical; conditions: 0.1% Tween 80 solution, aqueous with cosolvent or surfactant or cyclodextrin, thermodynamic from solid; 0.1% Tween 80, pH 7.4, 37° C., 3 h incubation
Method: A solubility test was performed prior to the in-vitro release profile experiment to ensure that sink conditions would prevail by adding 10 mg LPV to 10 ml of 0.1% Tween 80 pre-warmed to 37° C. in a beaker. The pH was adjusted to 7.4 and the Tween solution was kept at 37° C. and rotated at 150 rpm for 3 h. Then, 5 ml aliquots were taken and filtered using a 0.45 μm PVDF filter and diluted with methanol to a final dilution factor of 10.

[2] = LPV in-vitro release profile experiment; assay type: physicochemical; conditions: 0.1% Tween 80 release medium
Method: LPV in-vitro release kinetic experiments were carried out using the apparatus (VanKel VK7000 with a VK […] pump) comprised of six vessels containing 300 ml of 0.1% Tween 80 at 37° C. with USP paddles rotating at a speed of 50 rpm. The three formulations (F[I]-F[III]) were added to the different vessels at a LPV quantity equivalent to maintain sink conditions (10% of the pre-determined solubility). […] The samples were filtered using 0.45 μm PVDF filter and 500 μl from the filtrate was diluted in 500 μl methanol. These samples were comprised of free and encapsulated LPV, since LPV NCs diameter size is about 200 nm and the NCs can diffuse via 0.45 μm membrane pores. The remaining filtrate was then transferred to diafiltration membrane vivaspin 6 (MWCO 300,000 purchased from Sartorius Stedim Biotech) and centrifuged for 15 min at 4000 rpm. […] All samples were analyzed using HPLC. […] The graphs display both the total amount of LPV released from the MCPs, as free dissolved molecules and the LPV molecules still entrapped in the NCs, as detected following filtration of the dissolution samples through 0.45 μm PVDF filters (dimond-shaped points), as well as the free dissolved LPV molecules fraction only, as detected following a second filtration using 300,000 MW cut off vivaspin membranes which retained the NCs (square points). […]

[3] = Pharmacokinetic studies in rats (LPV plasma levels by LC-MS/MS); assay type: in vivo; conditions: male, Sprague-Dawley, rat
Method: Sprague-Dawley male rats weighing 270-300 g were used and were separated randomly into seven groups with 4-8 animals per group to evaluate the biofate of LPV in different formulations. The animals were housed in SPF conditions, fasted overnight (12-14 h prior to the experiment) with free access to water. The animals were given a dose of 10 mg/kg LPV with or without RTV, always at the same ratio as the Kaletra® administered orally, using gavage. The groups were orally administered according to the following experimental conditions: 1 ml of Kaletra® oral solution (LPV 80 mg/RTV 20 mg/ml) prepared by diluting the purchased commercial solution with 1:1:1 ethanol:propylene glycol:DDW to a concentration of LPV 3 mg/RTV 0.75 mg/ml; and microparticulate formulations, F[I]-F[III] prepared by dispersing the NCs embedded in MCPs in DDW to the final concentration of 40 mg/ml. Blood samples (400-500 μl) were withdrawn from the tail vein at 0, 0.5, 1, 2, 4, 8, 12 and 24 h. Saline solution was given to the animals after 30 min and then again after 3 h. The blood samples were collected in heparin containing tubes. The samples were immediately centrifuged at 10,000 rpm for 5 min, after which 200-300 μl of plasma samples were transferred to new tubes and stored at −80° C. until further analysis by LC-MS/MS as described below.
The blood samples were treated by protein precipitation in methanol, following 15 min centrifuge at 10,000 rpm. 25 ng of quinoxaline (QX) dissolved in methanol were added to each sample, as an internal standard. The supernatant layer was collected and the samples were injected into an LC-MS/MS device under the following conditions: using a Phenomenex Kenetex column (RP-C18, 50×2.1 mm, 2.6 μm, 100 A) in gradient mode; the mobile phase consisted of A=methanol/formic acid 99.9/0.1 and B=water/formic acid 99.9/0.1; the A:B ratio was 58:42 at t=0 min, during the first 1.5 min the ratio changed gradually to A:B 80:20 and remained steady until 2.1 min. […] The flow rate was maintained at 0.35 ml/min, and the column temperature was maintained at 35° C. LC-MS/MS analysis was performed with a thermo scientific Accela HPLC system coupled with a TSQ Quantum Access MAX detector in positive ionization mode. Detection and quantification were carried out by multiple-reaction monitoring with transitions from m/z 629.3 to 156 for LPV and from m/z 313.1 to 246 for QX. The tested samples were quantified against a calibration curve in the range of 0-100 ng/ml.
The change in LPV plasma concentrations following intravenous (i.v.) administration of LPV alone and combined with RTV in an aqueous solution and the pharmacokinetic (PK) profile of LPV following oral administration of various formulations is depicted in FIG. 10. […] The absolute bioavailability (F) of LPV at all dosage forms was calculated relative to the AUC (area under the curve) yielded by i.v. administration of LPV and RTV at the ratio of 4:1 (F=1.0) since the same combination of LPV and RTV, when administered orally, is considered the standard of PI care for HIV-linfected patients.

[4] = as above; assay type: in vivo; conditions: male, Sprague-Dawley, rat, oral, 10 mg/kg, read-out: absolute bioavailability compared to i.v. LPV solution
[5] = plasma, rats, oral, 10 mg/kg LPV

solubility at 3 h [1]: 72.7 µg/mL (≈ 116 µM) | decrease in Cmax compared to Kaletra® oral solution ([3]; in vivo, po): 3 fold | AUC ([3]; plasma, iv, rats, 10 mg/kg LPV): 8000 ± 1220 ng·h/mL | clearance ([3]; plasma, iv, rats, 10 mg/kg LPV): 21.1 mL/min/kg | half-life ([3]; plasma, iv, rats, 10 mg/kg LPV): 1.2 ± 0.2 h | Cmax ([3]; plasma, iv, rats, i.v., 10 mg/kg LPV, read-out: Cmax (extrapolated plasma concentration at T0)): 2780 ± 203 ng/mL | bioavailability ([3]; plasma, oral, 10 mg/kg, rats, oral, read-out: absolute bioavailability compared to LPV:RTV 4:1 i.v.): 5% | AUC [3, 5]: 1910 ± 324 ng·h/mL | half-life [3, 5]: 4.8 ± 0.9 h | Cmax ([3]; plasma, rats, oral, 10 mg/kg LPV, read-out: Cmax): 780 ± 246 ng/mL | bioavailability [4]: 24%
Structure (SMILES): Cc1cccc(C)c1OCC(=O)N[C@@H](Cc1ccccc1)[C@@H](O)C[C@H](Cc1ccccc1)NC(=O)[C@H](C(C)C)N1CCCNC1=O [LPV, (2S)—N-[(2S,4S,5S)-5-[2-(2,6-dimethylphenoxy)acetamido]-4-hydroxy-1,6-diphenylhexan-2-yl]-3-methyl-2-(2-oxo-1,3-diazinan-1-yl)butanamide]
LPV solubility at pH 1.2 [2]: low solubility below HPLC detection limit
